Patent US8933024B2, “Azolopyridin-3-one derivatives as inhibitors of lipases and phospholipases” (Sanofi, priority 2010, dated 2015)

Molecular target: endothelial lipase (EL) (Homo sapiens (Human), UniProt Q9Y5X9)
Assay: Test for inhibition of EL (assay for EL activity)
Format: biochemical
Conditions: phospholipase-specific Bodipy phosphocholine substrate; 37° C. for 90 minutes; enzyme from conditioned medium of recombinant cell lines (CHO, HEK293)
From the text: Test for inhibition of EL:
EL is released as a secretory protein by recombinant cell lines (CHO, HEK293) in high concentration into cell culture medium (conditioned medium). This was used as an enzyme solution after concentration.
For characterization of the enzymatic activity of endothelial lipase and the effect of inhibitors, the phospholipase-specific substrate 1,2-bis(4,4-difluoro-5,7-dimethyl-4-bora-3a,4a-diaza-s-indacene-3-undecanoyl)-sn-glycero-3-phosphocholine (manufacturer: Molecular Probes) was used. Hydrolysis of the A1 ester bond of this phospholipid by the enzyme releases the fluorescent dye Bodipy, which can be detected by measuring the fluorescence after separation by thin-layer chromatography on an HPTLC plate (silica gel 60, Merck) or directly in the reaction vessel. To prepare the substrate solution, 100 μg of 1,2-bis(4,4-difluoro-5,7-dimethyl-4-bora-3a,4a-diaza-s-indacene-3-undecanoyl)-sn-glycero-3-phosphocholine (manufacturer: Molecular Probes) were dissolved in 100 μl of DMSO and taken up in 2.4 mg of tripalmitin (Sigma) in 393 μl of chloroform which contained 20 mg/ml DOP—choline (1,2-dioleoyl-sn-glycero-3-phosphocholine). 39.3 μl of this lipid mixture were transferred into a fresh reaction vessel and the solvent was evaporated off. The lipid mixture was dissolved by sonicating twice in 4 ml of 200 mM TRIS-HCl, 150 mM sodium chloride, pH=7.4. The subsequent enzyme reaction was effected at 37° C. for 90 minutes. For this purpose, 20 μl of the substrate solution were incubated with 2 μl of inhibitor of appropriate concentration (dissolved in 10% DMSO; 10% DMSO solution was used as a control) and 2 μl of enzyme solution (conditioned medium). Thereafter, 4 μl of the test mixture were applied to an HPTLC plate (silica gel 60, Merck) and the fluorescent dye released was separated for detection with an eluent (diethyl ether:petroleum:acetic acid [78:22:1]). After the eluent had been evaporated off, the plate was read in a fluorescence scanner.

Sequence of endothelial lipase (EL) (Q9Y5X9 21-500): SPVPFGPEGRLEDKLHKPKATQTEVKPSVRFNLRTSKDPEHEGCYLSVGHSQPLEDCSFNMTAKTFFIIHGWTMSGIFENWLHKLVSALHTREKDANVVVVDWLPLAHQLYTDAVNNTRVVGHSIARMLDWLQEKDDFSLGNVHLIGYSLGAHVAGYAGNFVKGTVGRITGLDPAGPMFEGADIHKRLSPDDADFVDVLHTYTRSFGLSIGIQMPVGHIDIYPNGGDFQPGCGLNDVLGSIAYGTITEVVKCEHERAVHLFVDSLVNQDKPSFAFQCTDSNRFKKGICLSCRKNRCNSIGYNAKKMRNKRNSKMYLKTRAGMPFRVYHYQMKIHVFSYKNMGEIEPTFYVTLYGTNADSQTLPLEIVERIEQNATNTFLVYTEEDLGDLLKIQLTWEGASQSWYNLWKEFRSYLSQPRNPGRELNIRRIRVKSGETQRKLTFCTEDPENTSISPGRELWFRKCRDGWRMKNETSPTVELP

Compound	IC50 [nM]
COc1cc(CNC(=O)n2sc3ncccc3c2=O)cc(OC)c1OC [Example 3, 3-Oxo-3H-isothiazolo[5,4-b]pyridine-2-carboxylic acid 3,4,5-trimethoxy-benzylamide]	926
COc1cc(C(C)NC(=O)n2sc3ncccc3c2=O)cc(OC)c1OC (stereo not drawn) [Example 4, 3-Oxo-3H-isothiazolo[5,4-b]pyridine-2-carboxylic acid [1-(3,4,5-trimeth-oxy-phenyl)-ethyl]-amide]	40
CC(NC(=O)n1sc2ncccc2c1=O)c1ccc2c(c1)OCCO2 (stereo not drawn) [Example 5, 3-Oxo-3H-isothiazolo[5,4-b]pyridine-2-carboxylic acid [1-(2,3-dihydro-benzo[1,4]dioxin-6-yl)-ethyl]-amide]	200
O=C(NCc1ccccc1)n1sc2ncccc2c1=O [Example 18, 3-Oxo-3H-isothiazolo[5,4-b]pyridine-2-carboxylic acid benzylamide]	69
COc1ccc(OC)c(CNC(=O)n2sc3ncccc3c2=O)c1 [Example 28, 3-Oxo-3H-isothiazolo[5,4-b]pyridine-2-carboxylic acid 2,5-dimethoxy-benzylamide]	107
Cc1cc(C)c(CNC(=O)n2sc3ncccc3c2=O)c(C)c1 [Example 29, 3-Oxo-3H-isothiazolo[5,4-b]pyridine-2-carboxylic acid 2,4,6-trimethyl-benzylamide]	4290
COc1ccc(C(C)NC(=O)n2sc3ncccc3c2=O)cc1OC (stereo not drawn) [Example 37, 3-Oxo-3H-isothiazolo[5,4-b]pyridine-2-carboxylic acid [1-(3,4-dimethoxy-phenyl)-ethyl]-amide]	148
COc1cccc(CNC(=O)n2sc3ncccc3c2=O)c1 [Example 38, 3-Oxo-3H-isothiazolo[5,4-b]pyridine-2-carboxylic acid 3-methoxy-benzyl-amide]	182
Cc1cccc(C)c1CNC(=O)n1sc2ncccc2c1=O [Example 39, 3-Oxo-3H-isothiazolo[5,4-b]pyridine-2-carboxylic acid 2,6-dimethyl-benz-ylamide]	120
CC(C)C(NC(=O)n1sc2ncccc2c1=O)c1ccc2c(c1)OCCCO2 (stereo not drawn) [Example 46, 3-Oxo-3H-isothiazolo[5,4-b]pyridine-2-carboxylic acid [1-(3,4-dihydro-2H-benzo[b][1,4]dioxepin-7-yl)-2-methyl-propyl]-amide]	28
CSc1ccc(CNC(=O)n2sc3ncccc3c2=O)cc1 [Example 55, 3-Oxo-3H-isothiazolo[5,4-b]pyridine-2-carboxylic acid 4-methylsulfanyl-benzylamide]	116
CSc1cccc(CNC(=O)n2sc3ncccc3c2=O)c1 [Example 59, 3-Oxo-3H-isothiazolo[5,4-b]pyridine-2-carboxylic acid 3-methylsulfanyl-benzylamide]	264
COCCOc1ccc(CNC(=O)n2sc3ncccc3c2=O)cn1 [Example 114, 3-Oxo-3H-isothiazolo[5,4-b]pyridine-2-carboxylic acid [6-(2-methoxy-ethoxy)-pyridin-3-ylmethyl]-amide]	216
COc1cc(CNC(=O)n2sc3ncccc3c2=O)ccc1OCCN(C)C [Example 115, 3-Oxo-3H-isothiazolo[5,4-b]pyridine-2-carboxylic acid 4-(2-dimethylamino-ethoxy)-3-methoxy-benzylamide]	1380
CC(C)Oc1ncccc1CNC(=O)n1sc2ncccc2c1=O [Example 116, 3-Oxo-3H-isothiazolo[5,4-b]pyridine-2-carboxylic acid (2-isopropoxy-pyridin-3-ylmethyl)-amide]	1590
CCOc1ccc(CNC(=O)n2sc3ncccc3c2=O)cc1OC [Example 129, 3-Oxo-3H-isothiazolo[5,4-b]pyridine-2-carboxylic acid 4-ethoxy-3-meth-oxy-benzylamide]	230
CN(C)Cc1ccc(CNC(=O)n2sc3ncccc3c2=O)cc1 [Example 130, 3-Oxo-3H-isothiazolo[5,4-b]pyridine-2-carboxylic acid 4-dimethylamino-methyl-benzylamide]	85
CC(NC(=O)n1sc2ncccc2c1=O)c1ccc(N2CCOCC2)cc1 (stereo not drawn) [Example 134, 3-Oxo-3H-isothiazolo[5,4-b]pyridine-2-carboxylic acid [1-(4-morpholin-4-yl-phenyl)-ethyl]-amide]	391
COCCN1CCC(CNC(=O)n2sc3ncccc3c2=O)CC1 [Example 142, 3-Oxo-3H-isothiazolo[5,4-b]pyridine-2-carboxylic acid [1-(2-methoxy-ethyl)-piperidin-4-ylmethyl]-amide]	517
Cc1ccccc1CNC(=O)n1sc2ncccc2c1=O [Example 156, 3-Oxo-3H-isothiazolo(5,4-b]pyridine-2-carboxylic acid 2-methyl-benzyl-amide]	1580
COCCOc1ccc([C@@H](C)NC(=O)n2sc3ncccc3c2=O)cc1OC [Example 161, 3-Oxo-3H-isothiazolo[5,4-b]pyridine-2-carboxylic acid {(R)-1-[3-methoxy-4-(2-methoxy-ethoxy)-phenyl]-ethyl}-amide]	80
